Experimental findings from paper PMC4348164, “Evidence of more ion channels inhibited by celecoxib: KV1.3 and L-type Ca^2+ channels” (BMC Research Notes, 2015) are described below.

For this test, the target named is T1, human KV1.3 channels (Homo sapiens, UniProt P22001).
T1 construct: gene KCNA3; homotetramer
Briefly: whole-cell patch clamp, CHO cells. In kind it is cell-based.

Molecules are shown by their SMILES. pIC50: −log10 of the molar value.

The pIC50 is the IC50 on a negative log10 scale, so that one unit is a factor of ten. Read a low pIC50 as a high IC50.

T1 sequence (P22001 whole entry): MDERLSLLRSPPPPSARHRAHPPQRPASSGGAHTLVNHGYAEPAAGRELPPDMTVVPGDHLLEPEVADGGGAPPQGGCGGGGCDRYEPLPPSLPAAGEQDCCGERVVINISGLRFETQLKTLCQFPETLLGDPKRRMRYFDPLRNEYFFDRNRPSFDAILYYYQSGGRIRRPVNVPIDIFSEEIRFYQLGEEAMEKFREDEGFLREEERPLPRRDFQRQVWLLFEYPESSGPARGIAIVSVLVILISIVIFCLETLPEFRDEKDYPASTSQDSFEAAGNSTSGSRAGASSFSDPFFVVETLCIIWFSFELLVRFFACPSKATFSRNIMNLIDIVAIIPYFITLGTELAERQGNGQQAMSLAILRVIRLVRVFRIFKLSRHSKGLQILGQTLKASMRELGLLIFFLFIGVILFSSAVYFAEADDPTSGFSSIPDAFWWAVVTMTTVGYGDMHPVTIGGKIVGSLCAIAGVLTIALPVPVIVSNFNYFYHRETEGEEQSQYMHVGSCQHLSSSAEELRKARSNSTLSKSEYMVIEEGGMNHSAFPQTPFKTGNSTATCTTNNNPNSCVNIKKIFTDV

In turn, `Cc1ccc(-c2cc(C(F)(F)F)nn2-c2ccc(S(N)(=O)=O)cc2)cc1` [celecoxib] showed a pIC50 of 5.30.
